Data set [1] deals with Candida albicans. The experiment in a line: Antifungal activity against Candida albicans ATCC 10231 assessed as inhibition of hyphal formation at MIC70 after 36 hrs by microscopic analysis. The class given is functional, organism-based.
In a further data set the test system is MRC5. The experiment in a line: Cytotoxicity against human MRC5 cells after 48 hrs by MTT assay. The class given is cell-based. The conditions noted are these: MRC5, 48 h.
The subject of data set [2] is Candida albicans. The experiment in a line: Antifungal activity against Candida albicans ATCC 10231 by broth microdilution method. The class given is functional. For orientation: Broth dilution looks for growth in wells or tubes with falling amounts of substance.
In the next data set the test system is Pichia kudriavzevii. The experiment in a line: Antifungal activity against azole-resistant Candida krusei ATCC 6258 by broth microdilution method. The class given is functional.
In the next data set the test system is Candida parapsilosis. The experiment in a line: Antifungal activity against azole-resistant Candida parapsilosis CA-27 clinical isolate by broth microdilution method. The class given is functional.
The nature of data set [3]: Hemolytic activity in Sheep RBC at MIC and IC50 after 1 hr by multiplate reader analysis. The conditions noted are these: erythrocyte. The class given is ADME, cell-based, Ovis aries.
In data set [4] the test system is Candida albicans. The experiment in a line: Stimulation of hyphal formation in Candida albicans ATCC 10231 at MIC70 after 36 hrs by microscopic analysis. The class given is functional, organism-based.
For data set [5], the system named is Candida albicans. The experiment in a line: Antifungal activity against Candida albicans ATCC 10231 assessed as inhibition of biofilm formation at MIC70 after 48 hrs by propidium iodide/Concanavaline A-FITC staining-based fluorescence microscopic analysis. Type of data set: functional, organism-based.
The subject of data set [6] is Candida albicans. The experiment in a line: Antifungal activity against Candida albicans ATCC 10231 assessed as growth inhibition at 250 ug/disc by disc diffusion method. Type of data set: functional, organism-based. For orientation: In agar diffusion tests the substance spreads into inoculated agar from a disc or well.
For data set [7], the system named is Candida albicans. The experiment in a line: Binding affinity to Candida albicans ATCC 10231 DNA assessed as degradation at 25 ug/ml after 12 hrs by agarose gel electrophoresis.

Values after ≈ are worked out from the molar mass of the structure shown. Active and inactive are the calls of the source. The rule behind the calls is not given here. Some results are limits rather than exact numbers.

With `O=c1oc(-n2cc(Cl)cn2)cc2ccccc12`, in the data set on Candida albicans [1], the inhibition entry was “Active”. Also, the IC50 – broadly, the midpoint of a concentration-inhibition curve – in the data set with MRC5 is 15 µg/mL (≈ 60.8 µM). Besides, the MIC (in general, the lowest concentration found to suppress growth) in the data set with Candida albicans [2] was 5 µg/mL (≈ 20.3 µM); with Pichia kudriavzevii, 125 µg/mL (≈ 507 µM); in the data set with Candida parapsilosis (Lodderomyces parapsilosis) it was over 500 µg/mL. Moreover, the Activity result in [3] was “Non-toxic”.

Compound `CCOC(=O)c1cn(-c2cc3ccccc3c(=O)o2)cn1` had an IC50 in the data set with MRC5 of 25 µg/mL (≈ 87.9 µM). Further, the MIC against Candida albicans [2] is 62.5 µg/mL (≈ 220 µM); in the data set with Pichia kudriavzevii it was over 500 µg/mL; in the data set on Candida parapsilosis (Lodderomyces parapsilosis), over 500 µg/mL. Further, the result with Candida albicans [4] was Active. The inhibition result with Candida albicans [5] is “Active”.

Regarding `O=c1oc(Br)cc2ccccc12`, the “growth inhibition (GI)” value in the data set with Candida albicans [6] was “Active”. In the data set with Candida albicans [1], the inhibition result is “Active”. For the same compound, the IC50 in the data set on MRC5 turned out to be 20 µg/mL (≈ 88.9 µM). In addition, the MIC against Candida albicans [2] is 15.6 µg/mL (≈ 69.3 µM); against Pichia kudriavzevii, 3.9 µg/mL (≈ 17.3 µM); in the data set on Candida parapsilosis (Lodderomyces parapsilosis), 62.5 µg/mL (≈ 278 µM). Moreover, the result in the data set on Candida albicans [7] was inactive. In data set [3], the Activity entry was “Non-toxic”.

As to `O=c1oc(-n2cccn2)cc2ccccc12`, the inhibition entry in the data set with Candida albicans [1] was “Active”. Besides, in the data set on MRC5, the IC50 was 30 µg/mL (≈ 141 µM). Besides, the MIC in the data set with Candida albicans [2] was 31.2 µg/mL (≈ 147 µM); with Pichia kudriavzevii it was over 500 µg/mL; against Candida parapsilosis (Lodderomyces parapsilosis) it was over 500 µg/mL. The result in the data set on Candida albicans [7] was inactive. Further, the Activity result in data set [3] is given as “Non-toxic”.

In turn, `O=c1oc(-n2c(C(F)(F)F)nc3ccccc32)cc2ccccc12` yielded an IC50 in the data set on MRC5 of 15 µg/mL (≈ 45.4 µM). The MIC in the data set on Candida albicans [2] worked out at 150 µg/mL (≈ 454 µM). Moreover, the outcome in the data set on Candida albicans [4] was Active.

For `C[C@@H](c1ncncc1F)[C@](O)(Cn1cncn1)c1ccc(F)cc1F` [VORICONAZOLE], in the data set with Candida albicans [1], the inhibition entry is “Active”. 40 µg/mL (≈ 115 µM) corresponded to half-maximal inhibition in the data set with MRC5 (IC50). Besides, the MIC against Candida albicans [2] worked out at 7.8 µg/mL (≈ 22.3 µM). The MIC entry in the data set with Pichia kudriavzevii and in the data set with Candida parapsilosis was “inactive” throughout.

With `COC(=O)/C=C/c1cc2ccccc2c(=O)o1`, the “growth inhibition (GI)” value in the data set on Candida albicans [6] was “Active”. Besides, in the data set on Candida albicans [1], the inhibition result was “Active”. In addition, the half-maximal inhibitory concentration (IC50) in the data set with MRC5 is 30 µg/mL (≈ 130 µM). Moreover, 500 µg/mL (≈ 2170 µM) was the least that counted as inhibitory against Candida albicans [2] (MIC). Further, the outcome with Candida albicans [7] was inactive. The Activity result in data set [3] is “Non-toxic”.

Consider `O=c1oc(-n2cnnn2)cc2ccccc12`, for which the inhibition entry with Candida albicans [1] is “Active”. This compound also returned an IC50 with MRC5 of 10 µg/mL (≈ 46.7 µM). The results for the MIC against Candida albicans [2], against Pichia kudriavzevii and in the data set on Candida parapsilosis (Lodderomyces parapsilosis) were 15.6 µg/mL (≈ 72.8 µM), 62.5 µg/mL (≈ 292 µM) and 125 µg/mL (≈ 584 µM), respectively. Moreover, the result with Candida albicans [7] was inactive. Besides, the Activity result in data set [3] was “Non-toxic”.

Take `O=c1oc(-n2ccnc2)cc2ccccc12`: in the data set on Candida albicans [1], the inhibition entry is “Active”. This compound had an IC50 with MRC5 of 25 µg/mL (≈ 118 µM). The same compound had an MIC in the data set on Candida albicans [2] of 62.5 µg/mL (≈ 295 µM). Moreover, the outcome in the data set on Candida albicans [7] was inactive. The Activity entry in [3] is “Non-toxic”.

Take `C[Si](C)(C)C#Cc1cc2ccccc2c(=O)o1`: in the data set with Candida albicans [6], the “growth inhibition (GI)” value was “Active”. Also, in the data set on MRC5, the IC50 was 30 µg/mL (≈ 124 µM). Moreover, the MIC in the data set on Candida albicans [2] was 250 µg/mL (≈ 1030 µM). Further, the result in the data set with Candida albicans [4] was Active. Also, in the data set with Candida albicans [7], the outcome was inactive. In addition, in data set [3], the Activity result is given as “Non-toxic”.

Take `O=c1oc(-n2cncn2)cc2ccccc12`: the inhibition result in the data set with Candida albicans [1] and in the data set on Candida albicans [5] was “Active” each time. The same compound gave an IC50 in the data set on MRC5 of 40 µg/mL (≈ 188 µM). The MIC in the data set on Candida albicans [2] is 20 µg/mL (≈ 93.8 µM); in the data set on Pichia kudriavzevii, 125 µg/mL (≈ 586 µM); against Candida parapsilosis (Lodderomyces parapsilosis), over 500 µg/mL. Further, the result in the data set on Candida albicans [7] was inactive. Moreover, in data set [3], the Activity result is recorded as “Non-toxic”.

The values above are taken from ChEMBL document CHEMBL3745700, “Functionalised isocoumarins as antifungal compounds: Synthesis and biological studies” (Bioorg Med Chem Lett, 2016).
